Active and inactive are the calls of the source. The calls are words filed in the database; no cut-off is given here.
Columns and labels:
[1] = target: T1, Janus Kinase (JAK) (Homo sapiens) (UniProt P52333+P23458+O60674+P29597); assay: Inhibition of JAK-mediated interferon-gamma/anisomycin-induced Stat1 phosphorylation in human U937 cells by Phospho-Flow cytometry; format: cell-based; details: U-937
[2] = Inhibition of JAK-mediated IL10-induced Stat3 phosphorylation in BALB/c mouse B cells by Phospho-Flow cytometry; format: cell-based
[3] = Inhibition of JAK-mediated IL6-induced Stat1 phosphorylation in BALB/c mouse B cells by Phospho-Flow cytometry; format: cell-based
[4] = target: MAP kinase p38 (Homo sapiens, UniProt O15264+Q15759+Q16539+P53778); assay: Inhibition of anisomycin-induced p38 phosphorylation in human U937 cells by Phospho-Flow cytometry at 20 uM; format: cell-based; details: U-937
[5] = target: T1, Janus Kinase (JAK) (Homo sapiens); assay: Inhibition of JAK-mediated GM-CSF-induced Stat5 phosphorylation in human U937 cells by Phospho-Flow cytometry at 20 uM; format: cell-based; details: U-937
[6] = target: T1, Janus Kinase (JAK) (Homo sapiens); assay: Inhibition of JAK-mediated interferon-gamma-induced Stat1 phosphorylation in human U937 cells by Phospho-Flow cytometry at 20 uM; format: cell-based; details: U-937
[7] = Inhibition of JAK-mediated IL15-induced Stat5 phosphorylation in BALB/c mouse CD11b-int macrophages by Phospho-Flow cytometry
[8] = Inhibition of JAK-mediated IL7-induced Stat5 phosphorylation in BALB/c mouse CD11b-hi neutrophils by Phospho-Flow cytometry
[9] = Inhibition of JAK-mediated IL6-induced Stat3 phosphorylation in BALB/c mouse B cells by Phospho-Flow cytometry; format: cell-based
[10] = Inhibition of JAK-mediated interferon-gamma-induced Stat1 phosphorylation in BALB/c mouse CD11b-int macrophages by Phospho-Flow cytometry
[11] = Inhibition of JAK-mediated IL4-induced Stat5 phosphorylation in BALB/c mouse CD8+ T cells by Phospho-Flow cytometry; format: cell-based; details: T-cell
[12] = Inhibition of JAK-mediated IL4-induced Stat5 phosphorylation in BALB/c mouse CD11b-int macrophages by Phospho-Flow cytometry
[13] = Inhibition of JAK-mediated IL6-induced Stat3 phosphorylation in BALB/c mouse CD8+ T cells by Phospho-Flow cytometry; format: cell-based; details: T-cell
[14] = Inhibition of JAK-mediated IL15-induced Stat5 phosphorylation in BALB/c mouse B cells by Phospho-Flow cytometry; format: cell-based
[15] = Inhibition of JAK-mediated IL6-induced Stat1 phosphorylation in BALB/c mouse CD8+ T cells by Phospho-Flow cytometry; format: cell-based; details: T-cell
[16] = Inhibition of JAK-mediated IL10-induced Stat3 phosphorylation in BALB/c mouse CD8+ T cells by Phospho-Flow cytometry; format: cell-based; details: T-cell
[17] = Inhibition of JAK-mediated IL15-induced Stat5 phosphorylation in BALB/c mouse CD11b-hi neutrophils by Phospho-Flow cytometry
[18] = Inhibition of JAK-mediated IL10-induced Stat3 phosphorylation in BALB/c mouse CD11b-int macrophages by Phospho-Flow cytometry
[19] = Inhibition of JAK-mediated IL15-induced Stat5 phosphorylation in BALB/c mouse CD8+ T cells by Phospho-Flow cytometry; format: cell-based; details: T-cell
[20] = Inhibition of JAK-mediated IL6-induced Stat3 phosphorylation in BALB/c mouse CD11b-int macrophages by Phospho-Flow cytometry
[21] = Inhibition of JAK-mediated IL7-induced Stat5 phosphorylation in BALB/c mouse CD11b-int macrophages by Phospho-Flow cytometry
[22] = Inhibition of JAK-mediated IL6-induced Stat1 phosphorylation in BALB/c mouse CD11b-int macrophages by Phospho-Flow cytometry
[23] = Inhibition of JAK-mediated IL15-induced Stat5 phosphorylation in BALB/c mouse CD4+ T cells by Phospho-Flow cytometry; format: cell-based; details: T-cell
[24] = Inhibition of JAK-mediated IL4-induced Stat6 phosphorylation in BALB/c mouse CD8+ T cells by Phospho-Flow cytometry; format: cell-based; details: T-cell
[25] = Inhibition of JAK-mediated IL6-induced Stat1 phosphorylation in BALB/c mouse CD11b-hi neutrophils by Phospho-Flow cytometry
[26] = Inhibition of JAK-mediated IL4-induced Stat6 phosphorylation in BALB/c mouse CD11b-int macrophages by Phospho-Flow cytometry
[27] = Inhibition of JAK-mediated IL6-induced Stat3 phosphorylation in BALB/c mouse CD11b-hi neutrophils by Phospho-Flow cytometry
[28] = Inhibition of JAK-mediated IL4-induced Stat5 phosphorylation in BALB/c mouse CD4+ T cells by Phospho-Flow cytometry; format: cell-based; details: T-cell
[29] = Inhibition of JAK-mediated IL7-induced Stat5 phosphorylation in BALB/c mouse CD8+ T cells by Phospho-Flow cytometry; format: cell-based; details: T-cell
[30] = Inhibition of JAK-mediated IL4-induced Stat5 phosphorylation in BALB/c mouse CD11b-hi neutrophils by Phospho-Flow cytometry
[31] = Inhibition of JAK-mediated IL7-induced Stat5 phosphorylation in BALB/c mouse CD4+ T cells by Phospho-Flow cytometry; format: cell-based; details: T-cell
[32] = Inhibition of JAK-mediated IL6-induced Stat3 phosphorylation in BALB/c mouse CD4+ T cells by Phospho-Flow cytometry; format: cell-based; details: T-cell
[33] = Inhibition of JAK-mediated IL10-induced Stat3 phosphorylation in BALB/c mouse CD11b-hi neutrophils by Phospho-Flow cytometry
[34] = Inhibition of JAK-mediated interferon-gamma-induced Stat1 phosphorylation in BALB/c mouse B cells by Phospho-Flow cytometry; format: cell-based
[35] = Inhibition of JAK-mediated interferon-gamma-induced Stat1 phosphorylation in BALB/c mouse CD11b-hi neutrophils by Phospho-Flow cytometry
[36] = Inhibition of JAK-mediated IL4-induced Stat6 phosphorylation in BALB/c mouse CD4+ T cells by Phospho-Flow cytometry; format: cell-based; details: T-cell
[37] = Inhibition of JAK-mediated IL7-induced Stat5 phosphorylation in BALB/c mouse B cells by Phospho-Flow cytometry; format: cell-based
[38] = Inhibition of JAK-mediated interferon-gamma-induced Stat1 phosphorylation in BALB/c mouse CD4+ T cells by Phospho-Flow cytometry; format: cell-based; details: T-cell
[39] = Inhibition of JAK-mediated IL6-induced Stat1 phosphorylation in BALB/c mouse CD4+ T cells by Phospho-Flow cytometry; format: cell-based; details: T-cell
[40] = Inhibition of JAK-mediated IL10-induced Stat3 phosphorylation in BALB/c mouse CD4+ T cells by Phospho-Flow cytometry; format: cell-based; details: T-cell
[41] = Inhibition of JAK-mediated IL4-induced Stat5 phosphorylation in BALB/c mouse B cells by Phospho-Flow cytometry; format: cell-based

SMILES: CC(C)(C)c1nc2c3ccc(F)cc3c3c(=O)[nH]ccc3c2[nH]1
- Activity [1]: Active
- IC50 [2]: > 20 µM
- IC50 [3]: < 20 µM

SMILES: C=C1C(=O)O[C@@H]2C[C@@H](C)[C@@H]3C=CC(=O)[C@@]3(C)[C@@H](O)[C@H]12
- inhibition [4]: 25%
- inhibition [5]: 25%
- inhibition [6]: 25%

SMILES: C=C1C(=O)O[C@@H]2C[C@@]3(C)CCC[C@H](C)C3=C[C@H]12
- inhibition [4]: 25%
- inhibition [5]: 25%
- inhibition [6]: 25%

SMILES: CC(=O)O[C@@H]1CO[C@H]2O[C@H]3[C@@H](C(C=O)=C[C@H](O)[C@@H]4C5=C(C(C)C)CC[C@]5(C)CC[C@@]34C)[C@@]2(O)C1=O
- inhibition [4]: 25%
- inhibition [5]: Active
- inhibition [6]: > 65%

SMILES: CC(=O)c1c(O)c(C)c(O)c(Cc2c(O)c3c(c(C(=O)/C=C/c4ccccc4)c2O)OC(C)(C)C=C3)c1O
- inhibition [4]: 25%
- inhibition [5]: 25%
- inhibition [6]: > 65%

SMILES: CC(C)=CC(=O)O[C@H]1[C@H]2[C@H](OC(=O)[C@H]2C)[C@H](O)[C@@H](C)[C@@H]2C=CC(=O)[C@]21C
- inhibition [4]: 25%
- inhibition [5]: 25%
- inhibition [6]: > 65%

SMILES: CC(C)c1oc(=O)cc2c1[C@@H](O)[C@H]1OC(=O)[C@@]3(C)[C@@H](O)[C@H]4O[C@H]4[C@@]2(C)[C@@H]13
- inhibition [4]: > 65%
- inhibition [5]: inactive
- inhibition [6]: inactive

SMILES: CC1CC(C)(O)CC(C(O)CC2CC(=O)NC(=O)C2)C1=O (stereo not drawn)
- inhibition [4]: 25%
- inhibition [5]: 25%
- inhibition [6]: 25%

SMILES: CC1OC(CC(=O)O)CC2=C1C(=O)c1c(O)cccc1C2=O (stereo not drawn)
- inhibition [4]: 25%
- inhibition [5]: 25%
- inhibition [6]: > 65%

SMILES: CC[C@H]1CN2CCc3cc(OC)c(OC)cc3[C@@H]2C[C@@H]1C[C@H]1NCCc2c1[nH]c1ccc(O)cc21
- inhibition [4]: 25%
- inhibition [5]: 25%
- inhibition [6]: > 65%

SMILES: CO[C@@H]1[C@@H](OC(=O)c2ccc(C)[nH]2)[C@@H](O)[C@@H](Oc2ccc3c(O)c(NC(=O)c4c[nH]c(C(=O)Nc5c(O)c6ccc(O[C@H]7OC(C)(C)[C@H](OC)[C@@H](OC(=O)c8ccc(C)[nH]8)[C@H]7O)c(C)c6oc5=O)c4C)c(=O)oc3c2C)OC1(C)C
- inhibition [4]: inactive
- inhibition [5]: inactive
- inhibition [6]: inactive

SMILES: C[C@H]1CC[C@@H]2[C@@H](C)[C@H]3[C@H](C[C@H]4[C@@H]5CC=C6C[C@@H](O[C@@H]7O[C@H](CO)[C@H](O)[C@H](O[C@@H]8O[C@H](CO)[C@@H](O)[C@H](O)[C@H]8O)[C@H]7O[C@H]7O[C@@H](C)[C@H](O)[C@@H](O)[C@H]7O)CC[C@]6(C)[C@H]5CC[C@]34C)N2C1
- inhibition [4]: 25%
- inhibition [5]: 25%
- inhibition [6]: > 65%

SMILES: C[S+]([O-])c1ccc(-c2nc(-c3ccc(F)cc3)c(-c3ccncc3)[nH]2)cc1 (stereo not drawn)
- Activity [1]: Active

SMILES: O=C1C=C2C(=CCOC2O)O1 (stereo not drawn)
- inhibition [4]: 25%
- inhibition [5]: 25%
- inhibition [6]: > 65%

SMILES: C/C=C/C1=C(Cl)C(=O)[C@H](Cl)[C@]1(O)C(=O)OC [CRYTOSPORIOPSIN]
- IC50 [7]: < 20 µM
- inhibition [4]: 25%
- inhibition [5]: Active
- IC50 [8]: < 20 µM
- IC50 [9]: < 20 µM
- IC50 [10]: < 20 µM
- IC50 [11]: < 20 µM
- IC50 [12]: < 20 µM
- IC50 [13]: < 20 µM
- IC50 [14]: < 20 µM
- IC50 [15]: < 20 µM
- IC50 [16]: < 20 µM
- IC50 [17]: < 20 µM
- IC50 [18]: < 20 µM
- IC50 [19]: < 20 µM
- IC50 [20]: < 20 µM
- IC50 [2]: < 20 µM
- IC50 [21]: < 20 µM
- IC50 [22]: < 20 µM
- IC50 [23]: < 20 µM
- IC50 [24]: < 20 µM
- IC50 [25]: < 20 µM
- IC50 [26]: < 20 µM
- IC50 [27]: < 20 µM
- IC50 [28]: < 20 µM
- IC50 [29]: < 20 µM
- IC50 [30]: < 20 µM
- inhibition [6]: > 65%
- IC50 [31]: < 20 µM
- IC50 [32]: < 20 µM
- IC50 [33]: < 20 µM
- IC50 [34]: < 20 µM
- IC50 [35]: < 20 µM
- IC50 [3]: < 20 µM
- IC50 [36]: < 20 µM
- IC50 [37]: < 20 µM

SMILES: O=Nc1c(-c2c(O)[nH]c3ccccc23)[nH]c2ccccc12 [INDIRUBIN-3-MONOXIME]
- IC50 [7]: < 20 µM
- IC50 [8]: < 20 µM
- IC50 [9]: < 20 µM
- IC50 [10]: < 20 µM
- IC50 [11]: < 20 µM
- IC50 [38]: < 20 µM
- IC50 [12]: < 20 µM
- IC50 [13]: < 20 µM
- IC50 [14]: < 20 µM
- IC50 [15]: < 20 µM
- IC50 [16]: < 20 µM
- IC50 [39]: < 20 µM
- IC50 [17]: < 20 µM
- IC50 [18]: < 20 µM
- IC50 [19]: < 20 µM
- IC50 [20]: < 20 µM
- IC50 [40]: < 20 µM
- IC50 [41]: < 20 µM
- IC50 [2]: < 20 µM
- IC50 [21]: < 20 µM
- IC50 [22]: < 20 µM
- IC50 [23]: < 20 µM
- IC50 [24]: < 20 µM
- IC50 [25]: < 20 µM
- IC50 [26]: < 20 µM
- IC50 [27]: < 20 µM
- IC50 [28]: < 20 µM
- IC50 [29]: < 20 µM
- IC50 [30]: < 20 µM
- IC50 [31]: < 20 µM
- IC50 [32]: < 20 µM
- IC50 [33]: < 20 µM
- IC50 [34]: < 20 µM
- IC50 [35]: < 20 µM
- IC50 [3]: < 20 µM
- IC50 [36]: < 20 µM
- IC50 [37]: < 20 µM
